Key:
[1] = target: Histone acetyltransferase KAT5 (Homo sapiens, UniProt Q92993); test: Acetyltransferase Biochemical Assay
Description: (§1) The reactions were performed in assay buffer (100 mM Tris-HCl, pH7.8, 15 mM NaCl, 1 mM EDTA, 0.01% Tween-20, 1 mM Dithiothreitol and 0.01% m/v chicken egg white albumin). […] 11-point dilution series of the test compounds were prepared in DMSO; a volume of 100 nL was transferred using a pin tool into assay plates containing substrates, […] control reactions were included on the same plates and received the same amount of DMSO as the compound treated wells. After adding all reagents, the plates were sealed with adhesive seals and incubated for 90 min at room temperature. An additional 4 uL of assay buffer containing AlphaScreen Protein A acceptor beads […] was then added.

[2] = target: Histone acetyltransferase KAT7 (Homo sapiens, UniProt O95251); test: Acetyltransferase Biochemical Assay
Sequence of Histone acetyltransferase KAT7 (O95251 whole entry): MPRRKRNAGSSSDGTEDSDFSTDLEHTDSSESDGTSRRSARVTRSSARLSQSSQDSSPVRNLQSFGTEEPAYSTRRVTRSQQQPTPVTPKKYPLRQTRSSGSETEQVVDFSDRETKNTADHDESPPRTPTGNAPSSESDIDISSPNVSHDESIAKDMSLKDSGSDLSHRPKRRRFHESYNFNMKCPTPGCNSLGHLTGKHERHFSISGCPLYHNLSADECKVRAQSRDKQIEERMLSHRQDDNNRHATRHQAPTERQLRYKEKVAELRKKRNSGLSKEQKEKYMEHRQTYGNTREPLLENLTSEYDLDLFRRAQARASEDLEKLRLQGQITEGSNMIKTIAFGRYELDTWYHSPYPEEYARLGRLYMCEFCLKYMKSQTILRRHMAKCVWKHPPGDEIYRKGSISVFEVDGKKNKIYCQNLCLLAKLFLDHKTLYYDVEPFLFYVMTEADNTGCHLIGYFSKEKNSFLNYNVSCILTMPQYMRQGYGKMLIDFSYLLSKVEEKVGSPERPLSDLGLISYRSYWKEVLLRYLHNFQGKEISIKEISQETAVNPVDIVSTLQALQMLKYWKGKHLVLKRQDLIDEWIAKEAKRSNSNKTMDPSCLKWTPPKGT
Description: as §1

Sequence of Histone acetyltransferase KAT5 (Q92993 whole entry): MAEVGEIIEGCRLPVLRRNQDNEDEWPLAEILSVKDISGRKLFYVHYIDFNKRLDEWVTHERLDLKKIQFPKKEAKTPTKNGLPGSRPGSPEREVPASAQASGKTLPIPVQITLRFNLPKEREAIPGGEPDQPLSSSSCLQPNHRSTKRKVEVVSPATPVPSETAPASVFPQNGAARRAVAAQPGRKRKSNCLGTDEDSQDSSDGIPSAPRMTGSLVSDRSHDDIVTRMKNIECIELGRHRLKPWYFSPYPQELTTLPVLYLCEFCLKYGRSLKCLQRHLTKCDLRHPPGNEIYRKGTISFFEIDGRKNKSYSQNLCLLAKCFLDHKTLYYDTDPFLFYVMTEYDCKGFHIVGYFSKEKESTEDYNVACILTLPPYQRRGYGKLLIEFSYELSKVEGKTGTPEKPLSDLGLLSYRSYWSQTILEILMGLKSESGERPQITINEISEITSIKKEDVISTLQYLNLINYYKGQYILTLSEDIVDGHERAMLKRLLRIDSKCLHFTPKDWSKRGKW

| SMILES | IC50 [1] | IC50 [2] |
| --- | --- | --- |
| COc1ccccc1-c1nnc(NS(=O)(=O)C2CCNCC2)s1 [US20240277683, Example 129] | > 125 µM | – |
| O=S(=O)(Nc1cc(-c2ccccc2)on1)c1ccc2c(c1)CCCC2 [US20240277683, Example 76] | > 125 µM | – |
| O=S(=O)(Nc1cc(-c2ccccc2)on1)C1CC1 [US20240277683, Example 29] | > 125 µM | > 125 µM |

Reference: BindingDB's records for patent US20240277683 (Ctxt, 2024)
